Legend:
[1] = test system: acylamino acid racemase; assay: Influences of metal ions on enzyme activities; assay type: biochemical, Streptomyces sp. Y-53; conditions: for Relative enzyme activity, Additive Concentration 1 mM / Relative enzyme activity, Additive Concentration 10 mM: no additives taken as 100, cobalt chloride excluded; for Relative enzyme activity, Additive Concentration 1 mM: final concentration 1 mM; for Relative enzyme activity, Additive Concentration 10 mM: final concentration 10 mM
Procedure: Enzyme activities are determined by means of a mixed reaction system comprising 50 μl of a solution of the enzyme, 40 μl of a solution of the substrate, 10 μl of an L-aminoacylase solution and 400 μl of a 50 mM Tris-HCl buffer (pH 7.5 ). As the enzyme solution, a solution prepared by dissolving an acylamino acid racemase standard sample in a Tris-HCl buffer (pH 7.5 ) to 1 to 0.2 unit/ml was used; as the L-aminoacylase solution, a solution prepared by dissolving an L-aminoacylase standard sample (a commercially available product such as that produced by Sigma Co. may be used, but the L-aminoacylase extracted and purified from Y-53 strain was used in the present invention) in a Tris-HCl buffer (pH 7.5) to 40 to 8 units/ml.
The above solutions are mixed together by the sequential addition of the Tris-HCl buffer, substrate solution, L-aminoacylase solution and enzyme solution in this order, and reaction is initiated at 30° C. simultaneously with the addition of the enzyme solution.
For the determination of enzyme activities, the amount of methionine produced in the reaction system is determined by high performance liquid chromatography, and the enzyme activity corresponding to the production of 1 μmol/min. methionine is expressed as 1 unit. When a ymM concentration of methionine has been produced in the reaction system during a reaction time of x minutes, the activity (αunit) of the enzyme in 50 μl solution is calculated by the following equation: [formula]
In Table 4, the enzyme activities are presented in relative activities on the basis of the values obtained in the case of no additives as taken as 100.

[2] = test system: acylamino acid racemase; assay: Substrate specificity of acylamino acid racemase (enzyme activity determination coupled with aminoacylase); assay type: biochemical, Streptomyces sp. Y-53; conditions: amount of produced methionine taken as 100, free amino acids checked by amino acid oxidase and HPLC; for Relative Activity (D-form substrate): L-aminoacylase coupled; for Relative Activity (L-form substrate): D-aminoacylase of Y-53 strain coupled
Procedure: Note that the relative activities in Table 3, where N^α -acylamino acids were used as substrates, were determined by the method of enzyme activity determination described in the term .circle.3 , with the values representing the found amount (mM) of the produced α-amino acids corresponding to respective substrates as calculated on the basis of the amount of produced methionine taken as 100. When the substrate was an L-N^α -acylamino acid, D-aminoacylase as produced by Y-53 strain was used in place of L-aminoacylase.

[3] = concentration not singled out (1 mM and 10 mM examined)

Relative Activity (D-form substrate) [2] | SMILES | Relative enzyme activity, Additive Concentration 1 mM [1] | Relative enzyme activity, Additive Concentration 10 mM [1] | also measured
– | O.O.O.O.O.O.O.O.O.O.O.O.O.O.O.O.O=S(=O)([O-])[O-].O=S(=O)([O-])[O-].O=S(=O)([O-])[O-].[Al+3].[Al+3] [Al2 (SO4)3 .16H2 O] | 79 | 0 | Effect on enzyme activity (in words) ([1]; at 10 mM): inhibit the enzyme activity
– | O.O.[Ba+2].[Cl-].[Cl-] [BaCl2 .2H2 O] | 85 | 120 | –
– | [Ca+2].[Cl-].[Cl-] [CaCl2] | 95 | 100 | –
– | O.O.O.O.O.O.[Cl-].[Cl-].[Co+2] [CoCl2 .6H2 O] | – | 140 | Effect on enzyme activity (in words) ([1]; at 10 mM): hardly activate the enzyme; Effect on enzyme activity (in words) ([1]; low concentrations (around 1 mM)): noticeable activating effect
– | O.O.O.O.O.O.[Cl][Cr]([Cl])[Cl] [CrCl3 .6H2 O] | 96 | 100 | –
– | O.O.O.O.O.O=S(=O)([O-])[O-].[Cu+2] [CuSO4 .5H2 O] | 0 | 0 | Effect on enzyme activity (in words) [1, 3]: noticeable inhibitory effect
0 | C[C@@H](N)C(=O)O [D-alanine] | – | – | –
0 | CC(C)C[C@@H](N)C(=O)O [D-leucine] | – | – | –
0 | CSCC[C@@H](N)C(=O)O [D-methionine] | – | – | –
0 | N[C@H](Cc1ccccc1)C(=O)O [D-phenylalanine] | – | – | –
0 | N[C@H](Cc1c[nH]c2ccccc12)C(=O)O [D-tryptophan] | – | – | –
0 | CC(C)[C@@H](N)C(=O)O [D-valine] | – | – | –
– | O=C(O)CN(CCN(CC(=O)O)CC(=O)O)CC(=O)O [EDTA, reference compound] | 68 | 0 | Effect on enzyme activity (in words) ([1]; at 10 mM): noticeable inhibitory effect
– | O.O.O.O.O.O.O.O=S(=O)([O-])[O-].[Fe+2] [FeSO4 .7H2 O] | 100 | 560 | –
– | [Cl-].[K+] [KCl] | 110 | 130 | –
– | C[C@H](N)C(=O)O [L-alanine] | – | – | Relative Activity (L-form substrate) [2]: 0
– | CC(C)C[C@H](N)C(=O)O [L-leucine] | – | – | Relative Activity (L-form substrate) [2]: 0
– | CSCC[C@H](N)C(=O)O [L-methionine] | – | – | Relative Activity (L-form substrate) [2]: 0
– | N[C@@H](Cc1ccccc1)C(=O)O [L-phenylalanine] | – | – | Relative Activity (L-form substrate) [2]: 0
– | N[C@@H](Cc1c[nH]c2ccccc12)C(=O)O [L-tryptophan] | – | – | Relative Activity (L-form substrate) [2]: 0
– | CC(C)[C@H](N)C(=O)O [L-valine] | – | – | Relative Activity (L-form substrate) [2]: 0
– | [Cl-].[Li+] [LiCl] | 100 | 120 | –
– | O.O.O.O.O.O.O.O=S(=O)([O-])[O-].[Mg+2] [MgSO4 .7H2 O] | 890 | – | Effect on enzyme activity (in words) [1, 3]: the activating effect is greater at 10 mM than at 1 mM
– | O.O.O.O.O.O.O.O=S(=O)([O-])[O-].[Mn+2] [MnSO4 .7H2 O] | 780 | – | –
33 | CC(=O)N[C@H](C)C(=O)O [N-acetyl-D-alanine] | – | – | –

Relative Activity (D-form substrate) [2] | SMILES | Relative enzyme activity, Additive Concentration 1 mM [1] | Relative enzyme activity, Additive Concentration 10 mM [1] | also measured
33 | CC[C@H](C)[C@@H](NC(C)=O)C(=O)O [N-acetyl-D-allo-isoleucine] | – | – | –
37 | CC(=O)N[C@H](CC(C)C)C(=O)O [N-acetyl-D-leucine] | – | – | –
100 | CSCC[C@@H](NC(C)=O)C(=O)O [N-acetyl-D-methionine] | – | – | –
64 | CC(=O)N[C@H](Cc1ccccc1)C(=O)O [N-acetyl-D-phenylalanine] | – | – | –
10 | CC(=O)N[C@H](Cc1c[nH]c2ccccc12)C(=O)O [N-acetyl-D-tryptophan] | – | – | –
35 | CC(=O)N[C@@H](C(=O)O)C(C)C [N-acetyl-D-valine] | – | – | –
– | CC(=O)N[C@@H](C)C(=O)O [N-acetyl-L-alanine] | – | – | Relative Activity (L-form substrate) [2]: 21
– | CC(=O)N[C@@H](CC(C)C)C(=O)O [N-acetyl-L-leucine] | – | – | Relative Activity (L-form substrate) [2]: 74
– | CSCC[C@H](NC(C)=O)C(=O)O [N-acetyl-L-methionine] | – | – | Relative Activity (L-form substrate) [2]: 100
– | CC(=O)N[C@@H](Cc1ccccc1)C(=O)O [N-acetyl-L-phenylalanine] | – | – | Relative Activity (L-form substrate) [2]: 84
– | CC(=O)N[C@@H](Cc1c[nH]c2ccccc12)C(=O)O [N-acetyl-L-tryptophan] | – | – | Relative Activity (L-form substrate) [2]: 8
– | CC(=O)N[C@H](C(=O)O)C(C)C [N-acetyl-L-valine] | – | – | Relative Activity (L-form substrate) [2]: 19
14 | C[C@@H](NC(=O)c1ccccc1)C(=O)O [N-benzoyl-D-alanine] | – | – | –
80 | CC(C)[C@@H](NC(=O)CCl)C(=O)O [N-chloroacetyl-D-valine] | – | – | –
– | O=C(CCl)N[C@@H](Cc1ccccc1)C(=O)O [N-chloroacetyl-L-phenylalanine] | – | – | Relative Activity (L-form substrate) [2]: 112
– | CC(C)[C@H](NC(=O)CCl)C(=O)O [N-chloroacetyl-L-valine] | – | – | Relative Activity (L-form substrate) [2]: 105
40 | CSCC[C@@H](NC=O)C(=O)O [N-formyl-D-methionine] | – | – | –
– | CSCC[C@H](NC=O)C(=O)O [N-formyl-L-methionine] | – | – | Relative Activity (L-form substrate) [2]: 63
– | [Cl-].[Na+] [NaCl] | 100 | 130 | –
– | O.O.[Na+].[Na+].[O]=[Mo](=[O])([O-])[O-] [NaMoO4 .2H2 O] | 96 | 0 | Effect on enzyme activity (in words) ([1]; at 10 mM): inhibit the enzyme activity
– | O.O.O.O.O.O.O=S(=O)([O-])[O-].[Ni+2] [NiSO4 .6H2 O] | 460 | 0 | –
– | [Cl][Pb][Cl] [PbCl2] | 78 | 100 | –
– | O=S(=O)([O-])[O-].[Sn+2] [SnSO4] | 92 | 100 | –
– | O.O.O.O.O.O.[Cl-].[Cl-].[Sr+2] [SrCl2 .6H2 O] | 94 | 110 | –
– | O.O.O.O.O.O.O.O=S(=O)([O-])[O-].[Zn+2] [ZnSO4 .7H2 O] | 810 | 80 | –

SMILES | Relative Activity (D-form substrate) [2] | Relative enzyme activity, Additive Concentration 1 mM [1] | Relative enzyme activity, Additive Concentration 10 mM [1] | also measured
O=C(CCl)N[C@H](Cc1ccccc1)C(=O)O [N-chloroacetyl-D-phenylalanine] | 90 | – | – | –
